How the values were obtained:
androgen receptor = target: T1, androgen receptor (Homo sapiens, UniProt P10275); experiment: Assay for binding affinity to androgen receptor ([3H]methyltrienolone radioligand, cell cytosol); conditions: 1 nM [3H]methyltrienolone, 24 hours at 4° C., Table 5
T1 sequence (P10275 1-920 T878A): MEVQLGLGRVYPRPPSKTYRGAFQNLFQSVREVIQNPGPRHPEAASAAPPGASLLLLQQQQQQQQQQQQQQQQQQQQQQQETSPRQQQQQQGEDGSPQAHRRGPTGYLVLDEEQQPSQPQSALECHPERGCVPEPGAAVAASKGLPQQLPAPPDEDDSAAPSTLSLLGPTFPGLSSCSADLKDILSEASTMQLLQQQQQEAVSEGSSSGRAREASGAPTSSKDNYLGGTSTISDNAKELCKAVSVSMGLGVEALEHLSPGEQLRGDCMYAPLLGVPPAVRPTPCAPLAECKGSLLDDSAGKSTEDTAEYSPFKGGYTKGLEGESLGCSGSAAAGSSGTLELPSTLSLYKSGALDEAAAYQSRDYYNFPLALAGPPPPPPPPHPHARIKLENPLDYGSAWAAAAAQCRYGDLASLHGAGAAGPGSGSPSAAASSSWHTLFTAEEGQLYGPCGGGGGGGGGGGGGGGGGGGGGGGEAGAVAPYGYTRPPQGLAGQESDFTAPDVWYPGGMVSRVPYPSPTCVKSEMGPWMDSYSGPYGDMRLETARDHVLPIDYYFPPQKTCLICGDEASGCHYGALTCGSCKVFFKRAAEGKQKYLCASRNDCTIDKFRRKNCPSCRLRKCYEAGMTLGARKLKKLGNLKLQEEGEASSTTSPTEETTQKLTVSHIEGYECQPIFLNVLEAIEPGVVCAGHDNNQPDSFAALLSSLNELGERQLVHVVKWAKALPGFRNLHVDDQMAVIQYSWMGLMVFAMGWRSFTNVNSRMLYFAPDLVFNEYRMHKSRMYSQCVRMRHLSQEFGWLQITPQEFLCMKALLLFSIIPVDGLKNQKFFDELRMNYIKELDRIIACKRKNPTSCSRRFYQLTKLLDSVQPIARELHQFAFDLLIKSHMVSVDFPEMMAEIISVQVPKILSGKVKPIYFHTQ
Method: Fractions of cell cytosol ([…] cell/point) were incubated for 24 hours at 4° C. with 1 nM [^3H]methyltrienolone in the absence or presence of the test compound in a buffer containing 25 mM Hepes-Tris (pH 7.4), 1 mM EDTA, 10 mM Na2MoO4, 2 mM DTT, 5 μM triamcinolone acetonide, and 10% glycerol. Nonspecific binding was determined in the presence of 1 μM testosterone. Following incubation, the samples were filtered rapidly under vacuum through glass fiber filters (GF/B, Packard) presoaked with 0.3% PEI and rinsed several times with ice-cold 50 mM Tris-HCl using a 96-sample cell harvester (Unifilter, Packard). The filters were dried then counted for radioactivity in a scintillation counter (Topcount, Packard) using a scintillation cocktail (Microscint 0, Packard). The results are expressed as a percent inhibition of the control radioligand specific binding. The standard reference compound is testosterone, which is tested in each experiment at several concentrations to obtain a competition curve from which its IC50 is calculated.

BRD4-BD1 = target: T2, BRD4-BD1 (Homo sapiens, UniProt O60885); experiment: bromoKdELECT assay for binding affinity to BRD4-BD1; conditions: Table 6
T2 construct: made in house; host or cells: T7 phage grown in an E. coli host derived from BL21
Method: (§1) Compounds were tested using a bromoKdELECT assay. T7 phage strains displaying bromodomains were grown in parallel in 24-well blocks in an E. coli host derived from the BL21 strain. E. coli were grown to log-phase and infected with T7 phage from a frozen stock (multiplicity of infection=0.4) and incubated with shaking at 32° C. until lysis (90-150 minutes). The lysates were centrifuged (5,000×g) and filtered (0.2 μm) to remove cell debris. Streptavidin-coated magnetic beads were treated with biotinylated small molecule or acetylated peptide ligands for 30 minutes at room temperature to generate affinity resins for bromodomain assays. The liganded beads were blocked with excess biotin and washed with blocking buffer (SeaBlock (Pierce), 1% BSA, 0.05% Tween 20, 1 mM DTT) to remove unbound ligand and to reduce nonspecific phage binding. Binding reactions were assembled by combining bromodomains, liganded affinity beads, and test compounds in 1× binding buffer (17% SeaBlock, 0.33×PBS, 0.04% Tween 20, 0.02% BSA, 0.004% Sodium azide, 7.4 mM DTT). Test compounds were prepared as 1000× stocks in 100% DMSO. Kds were determined using an 11-point 3-fold compound dilution series with one DMSO control point. All compounds for Kd measurements are distributed by acoustic transfer (non-contact dispensing) in 100% DMSO. The compounds were then diluted directly into the assays such that the final concentration of DMSO was 0.09%. All reactions performed in polypropylene 384-well plates. Each was a final volume of 0.02 ml. The assay plates were incubated at room temperature with shaking for 1 hour and the affinity beads were washed with wash buffer (1×PBS, 0.05% Tween 20). The beads were then resuspended in elution buffer (1×PBS, 0.05% Tween 20, 2 M non-biotinylated affinity ligand) and incubated at room temperature with shaking for 30 minutes. The bromodomain concentration in the eluates was measured by qPCR.

[1] = test system: T-Rex 293 cell line SC3 cells having increased expression of androgen receptor protein due to exposure to doxycycline; experiment: Cellular growth inhibition, T-Rex 293 SC3 cells with doxycycline (androgen receptor induced), CellTiter-Glo; format: cell-based; conditions: 72 h, T-Rex 293 SC3 cells with 10 ng/mL doxycycline (increased androgen receptor expression)
Summary of the method: (§2)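 Luminescence read-out (CellTiter-Glo 2.0) after 72 h compound exposure; GI50 by four-parameter nonlinear regression, baseline set at zero luminescence. SC3 cells, a doxycycline-inducible wild-type AR clone of T-Rex 293, were cultured ±10 ng/mL doxycycline in charcoal-dextran FBS medium.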

[2] = test system: T-Rex 293 cell line SC3 cells lacking increased expression of androgen receptor protein; experiment: Cellular growth inhibition, T-Rex 293 SC3 cells without doxycycline, CellTiter-Glo; format: cell-based; conditions: 72 h, T-Rex 293 SC3 cells not exposed to doxycycline, CellTiter-Glo 2.0
Summary of the method: as §2

BRD4-BD2 = target: T3, BRD4-BD2 (Homo sapiens, UniProt O60885); experiment: bromoKdELECT assay for binding affinity to BRD4-BD2; conditions: Table 7
T3 construct: made in house; host or cells: T7 phage grown in an E. coli host derived from BL21
Method: as §1, with “2 μM” for “2 M”

VCaP cells = experiment: Cellular growth inhibition assay for VCaP cells, CellTiter-Glo; format: cell-based, human; conditions: Homo sapiens, VCaP, 72 h, 72 hours treatment, CellTiter-Glo 2.0
Summary of the method: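 GI50 values come from four-parameter curve fits of luminescence data normalized to a zero baseline. Compound, in medium with 0.5% DMSO, was added one day after plating and left for 72 h before CellTiter-Glo 2.0 addition.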

T47D cells = experiment: Cellular growth inhibition assay for T47D cells, CellTiter-Glo; format: cell-based, human; conditions: Homo sapiens, T47D, 72 h, 72 hours treatment, CellTiter-Glo 2.0 cell viability
Summary of the method: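 Growth inhibition as GI50, fitted with four parameters to CellTiter-Glo luminescence after 72 h of compound exposure (0.5% DMSO). Cells were T47D, grown in insulin-supplemented (0.2 units/mL) DMEM with 10% FBS and treated one day post-seeding.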

[3] = target: T4, progesterone receptor ligand binding domain (LBD) (Homo sapiens, UniProt P06401); experiment: FP assay (PolarScreen Progesterone Receptor Competitor Assay) for binding to progesterone receptor LBD; conditions: GST-tagged PR LBD, Fluormone tracer, fluorescence polarization, 2 hours; Table 17
T4 construct: GST-tagged PR LBD, Fluormone tracer, and compound were mixed; purchased Life Technologies A15905 or a15906
T4 sequence (P06401 679-913 limits assumed): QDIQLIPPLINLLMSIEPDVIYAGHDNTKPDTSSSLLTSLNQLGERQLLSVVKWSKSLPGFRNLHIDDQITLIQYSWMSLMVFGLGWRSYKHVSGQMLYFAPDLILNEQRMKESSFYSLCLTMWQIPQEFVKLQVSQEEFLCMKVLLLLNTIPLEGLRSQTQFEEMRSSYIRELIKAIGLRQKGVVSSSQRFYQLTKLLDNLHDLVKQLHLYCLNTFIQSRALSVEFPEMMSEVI
Method: Compounds were tested using the PolarScreen™ Progesterone Receptor Competitor Assay Kit (Life Technologies Cat #A15905 or a15906), as per the manufacturer's instructions. Briefly, GST-tagged PR LBD, Fluormone tracer, and compound were mixed and incubated for 2 hours at room temperature in the dark. Following incubation, the plates were spun at 3000×g for 30 seconds, then sealed with an optical adhesive cover, and fluorescence polarization was measured using appropriate excitation and emission filters with an EnVision Plate Reader (Perkin Elmer). Compound concentration vs. mP value were plotted in Prism (GraphPad). A four-parameter non-linear regression curve fit was applied to dose-response data to determine the half-maximal inhibitory concentration (IC50) for each test compound.

progesterone receptor = target: T5, progesterone receptor (Homo sapiens, UniProt P06401); experiment: PR Human Progesterone NHR Binding (Agonist Radioligand) Assay, T47D cytosol; conditions: T47D cytosolic fractions, 0.5 nM [3H]progesterone, 1 hour at 4° C., Table 16
T5 construct: host or cells: T47D cells (cytosolic fraction)
T5 sequence (P06401 1-933): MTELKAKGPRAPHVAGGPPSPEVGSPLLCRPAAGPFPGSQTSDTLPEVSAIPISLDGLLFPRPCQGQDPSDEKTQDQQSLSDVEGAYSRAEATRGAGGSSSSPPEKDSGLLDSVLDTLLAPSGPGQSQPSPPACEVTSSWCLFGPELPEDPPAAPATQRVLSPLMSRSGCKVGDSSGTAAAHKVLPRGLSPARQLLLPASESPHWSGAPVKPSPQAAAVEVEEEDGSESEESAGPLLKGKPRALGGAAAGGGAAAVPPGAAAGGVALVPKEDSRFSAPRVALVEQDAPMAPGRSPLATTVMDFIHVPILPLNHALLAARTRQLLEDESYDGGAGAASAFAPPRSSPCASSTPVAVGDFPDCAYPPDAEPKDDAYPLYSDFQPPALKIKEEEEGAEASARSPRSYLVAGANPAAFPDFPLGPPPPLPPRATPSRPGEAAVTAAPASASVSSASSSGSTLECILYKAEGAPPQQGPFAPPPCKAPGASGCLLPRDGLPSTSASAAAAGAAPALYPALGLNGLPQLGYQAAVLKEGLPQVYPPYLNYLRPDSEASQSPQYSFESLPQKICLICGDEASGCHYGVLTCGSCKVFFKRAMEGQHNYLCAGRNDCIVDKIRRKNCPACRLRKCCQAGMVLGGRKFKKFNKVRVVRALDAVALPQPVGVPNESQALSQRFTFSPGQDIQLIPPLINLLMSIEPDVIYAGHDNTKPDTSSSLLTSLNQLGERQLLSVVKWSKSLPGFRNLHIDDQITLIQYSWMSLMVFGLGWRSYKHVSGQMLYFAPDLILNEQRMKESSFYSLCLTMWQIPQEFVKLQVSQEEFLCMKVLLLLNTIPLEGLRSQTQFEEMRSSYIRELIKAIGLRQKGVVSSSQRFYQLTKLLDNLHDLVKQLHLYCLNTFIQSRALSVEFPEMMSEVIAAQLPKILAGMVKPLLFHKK
Method: Compounds were tested using the PR Human Progesterone NHR Binding (Agonist Radioligand) Assay, Cerep at Eurofins Discovery using a modified version of the protocol from Sarup et al. (Cancer Res 1988; 48:5071-5078). Briefly, cytosolic fractions of T47D cells were incubated with 0.5 nM [^3H]progesterone for 1 hour at 4° C. in the absence or presence of the test compound. Nonspecific binding was determined in the presence of 1 μM promegestone. Reactions were subjected to scintillation counting. Results are expressed as a percent inhibition of the control radioligand specific binding.

| Kd (androgen receptor) [µM] | Kd (BRD4-BD1) [µM] | Kd (BRD4-BD2) [µM] | GI50 (VCaP cells) [µM] | GI50 (T47D cells) [µM] | IC50 [3] [µM] | Ki (progesterone receptor) [µM] | Compound | GI50 [1] [µM] | GI50 [2] [µM] |
| --- | --- | --- | --- | --- | --- | --- | --- | --- | --- |
| < 0.05 | 0.5 to 2.5 |  |  |  |  |  | Cc1sc2c(c1C)C(c1ccc(Cl)cc1)=N[C@@H](CC(=O)NCCOCCOCCOC1CCCN(c3ncc(C(=O)N[C@H]4C(C)(C)[C@H](Oc5ccc(C#N)c(Cl)c5)C4(C)C)cn3)C1)c1nnc(C)n1-2 (some centres unmarked) [Compound I-15] | < 0.5 | 1.5 to 3 |
|  | 0.5 to 2.5 | < 0.05 |  |  |  |  | Cc1sc2c(c1C)C(c1ccc(Cl)cc1)=N[C@@H](CC(=O)NCCOCCOCCOC1CCN(c3ncc(C(=O)N[C@H]4C(C)(C)[C@H](Oc5ccc(C#N)c(Cl)c5)C4(C)C)cn3)C1)c1nnc(C)n1-2 (some centres unmarked) [Compound I-16] | < 0.5 | 1.5 to 3 |
|  |  |  | < 0.5 | 0.5 to 1.5 | 0.05 to 0.5 |  | Cc1sc2c(c1C)C(c1ccc(CCCOC3CCN(c4ncc5c(n4)CN([C@H]4C(C)(C)[C@H](Oc6ccc(C#N)c(Cl)c6)C4(C)C)C5=O)CC3)cc1)=NC(Cc1ncco1)c1nnc(C)n1-2 (some centres unmarked) [Compound I-134] |  |  |
| 0.05 to 0.5 |  |  |  | < 0.5 |  | < 0.05 | Cc1sc2c(c1C)C(c1ccc(N3CC(CC4CN(c5cnc(C(=O)N[C@H]6C(C)(C)[C@H](Oc7ccc(C#N)c(Cl)c7)C6(C)C)cn5)C4)C3)cc1)=N[C@@H](C)c1nnc(C)n1-2 [Compound I-503] |  |  |

Source: US20260062422A1 (Halda Therapeutics OpCo, Inc., priority 2022, published 2026)
